The values that follow come from patent publication US20220232831A1, “NOVEL NON-CODING HETEROCYCLIC AMINO ACIDS (NCHAA) AND THEIR USE AS HERBICIDES” (Fortephest Ltd., priority 2019, published 2022).

In assay [1] the test system is Seeds of Lettuce R. (Super-Jericho). Nature of the assay: Filter paper bioassay with lettuce seeds (germination and early plant development). The following applies: lettuce seeds on filter paper; 1, 0.1, 0.01, 0.001 mM; radicle and shoots assessed after 6 days. Format: in vivo. The protocol: Seeds of Lettuce R. (Super-Jericho, non-sterilized) were obtained from Ben Shahar Moshe Ltd., 99% purity.
Filter Paper Bioassays with Lettuce Seeds:
The protocol is following Bertin et al. 2009 and Movellan et al. 2014 with specified modifications as described below.
Seeds were placed on Whatman no. 1 filter paper (Whatman, Middlesex, U.K.) in Petri dishes (10 seeds per plate) supplemented with 2.0 ml of water (Control) or with a solution comprising 1 mM, 0.1 mM, 0.01 mM and 0.001 mM of test material. Petri dishes with seeds were placed in a tray at an angle of 45°. The trays were kept in dark for 48 hours and then transferred to the growth chamber (22° C., 0.045 mmol×m−2×s−1 photosynthetic photon flux density; 6/18 dark/light cycle) for additional 4 days. Each experiment was performed at least in two repeats. The development of radicle and shoots of experimental and control plants were visually assessed 6 days after the beginning of the test to determine Minimal Effective Concentration (MEC) of test material. In the context of the invention, MEC is defined as the lowest concentration level of a test material that caused deviation (absence of germination or malformation of radicle and shoots) from the plant's development in the Control group.

The test system of assay [2] is Romaine lettuce (Lactuca sativa L.) plants. Put plainly: Post-emergency herbicidal activity on Romaine lettuce plants. Format: in vivo. The conditions noted are these: Romaine lettuce at stage 2 to 3 leaves; compound in 0.1% Silwet, up to 0.5%; visual evaluation vs control plants. The protocol: The tests were performed on Romaine lettuce (Lactuca sativa L.) plants at the stage 2 to 3 leaves. The plants were grown on 300 well trays packed with soil, well dimensions 2×2×5 cm. Each compound was dissolved in 0.1% water solution of agronomically acceptable surfactant Silwet to final concentrations ranging from 0.0% (Control) to 0.5%. Two weeks after the treatment the herbicidal effects of the respective test material were visually evaluated by a comparison with the control plants. In addition, the aboveground part of the plant was neatly cut and weighed (wet weight). Each test was performed on 20 to 40 plants. The degree of growth inhibition and damage was evaluated according to the parameters in Table 2. Plant development at 7, 14, and 21 DAA (days after application) were evaluated on a scale of 0 to 100, in which score 0 represents dead plants and score 100 represents healthy plants according to plant vigor, height, and leaf color. Each test included 20 to 40 plants.

The structures appear in SMILES notation. Where a SMILES comes first, the peptide text is derived from it. [ ]: non-standard residue; d: D form. ξ: configuration not given here. ξ3Thi = NC(Cc1ccsc1)C(=O)O

For the compound `NC(Cc1cccs1)C(=O)O` (centres unmarked) [Code 501], the “Minimal Effective Concentration (MEC) as activity score, seeds germination & early plants development” value (“Minimal Effective Concentration (MEC)” for short) in assay [1] is “Maximal (0.01 mM and less)”. For the same compound, the “post-emergency herbicidal activity (Activity Index: plant's development vs Control)” value in assay [2] is recorded as “Strong (From 25 to 50)”.
In the case of `NC(Cc1ccsc1)C(=O)O` (centres unmarked) [Code 502], the “Minimal Effective Concentration (MEC)” value in assay [1] was “Maximal (0.01 mM and less)”. The “post-emergency herbicidal activity (Activity Index: plant's development vs Control)” value in assay [2] is reported as “Very Strong (From 15 to 25)”.
Turning to `NC(CNS(=O)(=O)c1ccsc1)C(=O)O` (centres unmarked) [Code 504], the “Minimal Effective Concentration (MEC)” value in assay [1] is “Weak (More than 1 mM)”. Besides, in assay [2], the “post-emergency herbicidal activity (Activity Index: plant's development vs Control)” value is “Weak (More than 75)”.
Take `NC(CNS(=O)(=O)c1cscc1F)C(=O)O` (centres unmarked) [Code 506]: the “Minimal Effective Concentration (MEC)” value in assay [1] is reported as “Weak (More than 1 mM)”. For the same compound, the “post-emergency herbicidal activity (Activity Index: plant's development vs Control)” value in assay [2] is on record as “Weak (More than 75)”.
For `COC(=O)C(N)CNS(=O)(=O)c1ccsc1` (centres unmarked) [Code 507], the “Minimal Effective Concentration (MEC)” value in assay [1] is listed as “Weak (More than 1 mM)”. Besides, the “post-emergency herbicidal activity (Activity Index: plant's development vs Control)” value in assay [2] is on record as “Weak (More than 75)”.
Turning to `N#Cc1cc(C[C@H](N)C(=O)O)cs1` [Code 509], in assay [1], the “Minimal Effective Concentration (MEC)” value is “Strong (0.1 mM)”. For the same compound, the “post-emergency herbicidal activity (Activity Index: plant's development vs Control)” value in assay [2] is “Maximal (Less than 15)”.
`NC(Cc1cc(C(F)(F)F)cs1)C(=O)O` (centres unmarked) [Code 510]: the “post-emergency herbicidal activity (Activity Index: plant's development vs Control)” value in assay [2] was “Strong (From 25 to 50)”.
As to `NC(Cc1csc(Cl)c1)C(=O)O` (centres unmarked) [Code 518], in assay [2], the “post-emergency herbicidal activity (Activity Index: plant's development vs Control)” value is reported as “Strong (From 25 to 50)”.
In the case of `NC(Cc1ccsc1)C(=O)NCC(=O)O` (centres unmarked) [Code 548] (H-[ξ3Thi]-Gly-OH), the “post-emergency herbicidal activity (Activity Index: plant's development vs Control)” value in assay [2] is reported as “Strong (From 25 to 50)”.
As for `CCCC(=O)NC(Cc1nc(Cl)sc1Cl)C(=O)OCC` (centres unmarked) [Code 550], the “post-emergency herbicidal activity (Activity Index: plant's development vs Control)” value in assay [2] is on record as “Maximal (Less than 15)”.
For `CCCCOCCOC(=O)C(Cc1nc(Cl)sc1Cl)NC(C)=O` (centres unmarked) [Code 551], the “post-emergency herbicidal activity (Activity Index: plant's development vs Control)” value in assay [2] is listed as “Maximal (Less than 15)”.
With `CCCCOC(=O)C(Cc1nc(Cl)sc1Cl)NC(C)=O` (centres unmarked) [Code 554], the “post-emergency herbicidal activity (Activity Index: plant's development vs Control)” value in assay [2] is “Maximal (Less than 15)”.
Regarding `Cc1sc(Cl)cc1CC(N)C(=O)O` (centres unmarked) [Code 559], in assay [2], the “post-emergency herbicidal activity (Activity Index: plant's development vs Control)” value is “Moderate (From 50 to 75)”.
For the compound `NC(Cc1ccsc1Br)C(=O)O` (centres unmarked) [Code 560], the “post-emergency herbicidal activity (Activity Index: plant's development vs Control)” value in assay [2] is given as “Strong (From 25 to 50)”.
Consider `COC(=O)C(N)Cc1cc(Cl)sc1Cl` (centres unmarked) [Code 568], for which the “post-emergency herbicidal activity (Activity Index: plant's development vs Control)” value in assay [2] was “Maximal (Less than 15)”.
As for `Cl.NC(Cc1n[nH]c2ccccc12)C(=O)O` (centres unmarked) [Code 599], in assay [1], the “Minimal Effective Concentration (MEC)” value is “Maximal (0.01 mM and less)”.
Take `Cn1cnnc1CC(N)C(=O)O` (centres unmarked) [Code 717]: the “post-emergency herbicidal activity (Activity Index: plant's development vs Control)” value in assay [2] is on record as “Weak (More than 75)”.
Still for that read-out and setting: for `Cl.Cl.Cn1ncnc1CC(N)C(=O)O` (centres unmarked) [Code 770] the value was “Weak (More than 75)”.
In the case of `Cl.Cn1cc(CC(N)C(=O)O)nn1` (centres unmarked) [Code 771], the “post-emergency herbicidal activity (Activity Index: plant's development vs Control)” value in assay [2] is reported as “Weak (More than 75)”.
Turning to `Cl.Cn1nnc(CC(N)C(=O)O)n1` (centres unmarked) [Code 772], in assay [2], the “post-emergency herbicidal activity (Activity Index: plant's development vs Control)” value is “Moderate (From 50 to 75)”.
Regarding `Cc1nnc(CC(N)C(=O)O)n1C.Cl` (centres unmarked) [Code 773], in assay [2], the “post-emergency herbicidal activity (Activity Index: plant's development vs Control)” value is reported as “Weak (More than 75)”.
For `N[C@@H](Cc1cn[nH]c1C(F)(F)F)C(=O)O` [Code 774], the “post-emergency herbicidal activity (Activity Index: plant's development vs Control)” value in assay [2] is given as “Very Strong (From 15 to 25)”.
As for `CCCCOCCOCCOC(=O)C(N)Cc1cn[nH]n1` (centres unmarked) [Code 775], the “post-emergency herbicidal activity (Activity Index: plant's development vs Control)” value in assay [2] is “Maximal (Less than 15)”.
